The supplement of paper PMC10307832

Experiments:
Assay in all cases: relative viability (nuclei count vs DMSO), 5 days (fraction); higher = more cells survive
[1] = compound: COc1cccc2c1C(=O)c1c(O)c3c(c(O)c1C2=O)C[C@@](O)(C(=O)CO)C[C@@H]3O[C@H]1C[C@H](N)[C@H](O)[C@H](C)O1 [Doxorubicin] + Nc1ncn([C@H]2C[C@H](O)[C@@H](CO)O2)c(=O)n1 [Decitabine] (partner 2 µM)
Outline: (§1)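 Lung cancer cell lines in 1536-well plates got either a single drug or a fixed anchor-drug dose together with five library-drug doses (not always all listed) in √10 steps, by pin tool, on the day after seeding. Nuclei were counted after 5 days, and relative viability is the treated-to-vehicle ratio of nuclei counts. Values are medians of duplicate plates.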

[2] = compound: COC1=C(C=C(C=C1)C2=CC3=NC=CN3C(=N2)NC4=C(C=CC=N4)C(=O)N)OC [BAY61-3606] + COc1cc2c(Oc3ccc(NC(=O)C4(C(=O)Nc5ccc(F)cc5)CC4)cc3F)ccnc2cc1OCCCN1CCOCC1 [Foretinib] (partner 0.25 µM)
Outline: as §1

[3] = compound: COC1=C(C=C(C=C1)C2=CC3=NC=CN3C(=N2)NC4=C(C=CC=N4)C(=O)N)OC [BAY61-3606] + Nc1ncn([C@H]2C[C@H](O)[C@@H](CO)O2)c(=O)n1 [Decitabine] (partner 2 µM)
Outline: as §1

[4] = compound: COc1cccc2c1C(=O)c1c(O)c3c(c(O)c1C2=O)C[C@@](O)(C(=O)CO)C[C@@H]3O[C@H]1C[C@H](N)[C@H](O)[C@H](C)O1 [Doxorubicin] + CC1(C)CCC(c2ccc(Cl)cc2)=C(CN2CCN(c3ccc(C(=O)NS(=O)(=O)c4ccc(N[C@H](CCN5CCOCC5)CSc5ccccc5)c(S(=O)(=O)C(F)(F)F)c4)cc3)CC2)C1 [Navitoclax] (partner 0.5 µM)
Outline: as §1

Row | Cell Line | relative viability ([1]; first compound 0.001 µM) | relative viability ([1]; first compound 0.003162 µM) | relative viability ([1]; first compound 0.01 µM) | relative viability ([1]; first compound 0.03162 µM) | relative viability ([1]; first compound 0.1 µM) | relative viability ([2]; first compound 0.02 µM) | relative viability ([2]; first compound 0.06325 µM) | relative viability ([2]; first compound 0.2 µM) | relative viability ([2]; first compound 0.6325 µM) | relative viability ([2]; first compound 2 µM) | relative viability ([3]; first compound 0.02 µM) | relative viability ([3]; first compound 0.06325 µM) | relative viability ([3]; first compound 0.2 µM) | relative viability ([3]; first compound 0.6325 µM) | relative viability ([3]; first compound 2 µM) | relative viability ([4]; first compound 0.001 µM) | relative viability ([4]; first compound 0.003162 µM) | relative viability ([4]; first compound 0.01 µM) | relative viability ([4]; first compound 0.03162 µM) | relative viability ([4]; first compound 0.1 µM)
1 | LC-2-ad | 0.764 | 0.842 | 0.831 | 0.92 | 0.759 | 1.05 | 0.83 | 0.971 | 1.11 | 0.653 | 0.849 | 0.772 | 0.775 | 0.778 | 0.92 | 0.386 | 0.384 | 0.567 | 0.496 | 0.506
2 | NCI-H2087 | 0.291 | 0.264 | 0.239 | 0.242 | 0.173 | 1.21 | 1.08 | 1.05 | 1.06 | 0.924 | 0.352 | 0.291 | 0.295 | 0.269 | 0.229 | 0.973 | 1.05 | 1.05 | 0.967 | 0.918
3 | COR-L23 | 0.427 | 0.452 | 0.391 | 0.253 | 0.157 | 0.999 | 0.944 | 0.963 | 0.992 | 0.865 | 0.398 | 0.441 | 0.455 | 0.485 | 0.363 | 1.03 | 1.12 | 0.82 | 0.63 | 0.169
4 | BEN | 0.757 | 0.714 | 0.712 | 0.62 | 0.607 | 0.701 | 0.69 | 0.723 | 0.654 | 0.911 | 0.798 | 0.688 | 0.77 | 0.769 | 0.755 | 0.0762 | 0.071 | 0.0683 | 0.0474 | 0.0661
5 | ChaGo-K-1 | 0.524 | 0.557 | 0.482 | 0.473 | 0.527 | 0.868 | 0.834 | 0.93 | 0.948 | 0.788 | 0.53 | 0.543 | 0.479 | 0.51 | 0.531 | 1.16 | 0.807 | 0.888 | 0.515 | 0.316
6 | LK-2 | 0.238 | 0.376 | 0.251 | 0.258 | 0.23 | 1.24 | 1.19 | 1 | 1.32 | 0.768 | 0.319 | 0.287 | 0.362 | 0.28 | 0.342 | 0.894 | 0.875 | 0.889 | 0.638 | 0.804
7 | NCI-H520 | 0.53 | 0.471 | 0.416 | 0.328 | 0.47 | 0.935 | 0.716 | 0.839 | 0.669 | 0.744 | 0.508 | 0.67 | 0.515 | 0.518 | 0.557 | 1.06 | 1.29 | 1.02 | 0.886 | 1
8 | NCI-H2009 | 0.445 | 0.384 | 0.333 | 0.263 | 0.274 | 1.34 | 1.31 | 1.22 | 1.26 | 1.06 | 0.368 | 0.359 | 0.352 | 0.365 | 0.415 | 1.21 | 1.15 | 1.17 | 0.962 | 0.604
9 | NCI-H1993 | 0.625 | 0.582 | 0.546 | 0.551 | 0.549 | 0.818 | 0.772 | 0.712 | 0.794 | 0.66 | 0.632 | 0.622 | 0.542 | 0.536 | 0.601 | 0.947 | 0.876 | 0.884 | 1.01 | 0.889
10 | HCC-78 | 0.749 | 0.697 | 0.717 | 0.668 | 0.533 | 0.519 | 0.516 | 0.568 | 0.545 | 0.578 | 0.643 | 0.676 | 0.798 | 0.722 | 0.857 | 0.41 | 0.689 | 0.753 | 0.692 | 0.768
